Converted amounts (≈) assume the structure as drawn. Where two headings read alike, the source gives them in different places.
How the values were obtained:
Format in all cases: cell-based
Mycobacterium avium [1] = test: MIC by micro broth dilution method (resazurin microtiter assay); details: read-out: Minimum Inhibitory Concentration (MIC)
Mycobacterium abscessus [2] = test: as above; details: Mycobacteroides abscessus, read-out: Minimum Inhibitory Concentration (MIC)
Mycobacterium kansasii [3] = test: as above; details: for MIC: Mycobacterium kansasii, read-out: Minimum Inhibitory Concentration (MIC)
Mycobacterium avium [4] = test: MBC test (plating on agar, CFU count); details: for MBC: Mycobacterium avium, read-out: Minimum Bactericidal Concentration (MBC)
Mycobacterium abscessus [5] = test: MBC test (plating on agar, CFU count); details: for Minimum Bactericidal Concentration (MBC): MH Culture Medium; for MBC: Mycobacteroides abscessus, 7H9 Culture Medium, read-out: Minimum Bactericidal Concentration (MBC)
Mycobacterium kansasii [6] = test: MBC test (plating on agar, CFU count); details: for MBC: Mycobacterium kansasii, read-out: Minimum Bactericidal Concentration (MBC)
[7] = system: Mycobacterium intracellulare; test: MIC by micro broth dilution method (resazurin microtiter assay); details: for MIC: Mycobacterium intracellulare, MH Culture Medium, read-out: Minimum Inhibitory Concentration (MIC)
[8] = system: Mycobacterium massiliense; test: as above; details: for MIC: Mycobacteroides abscessus, read-out: Minimum Inhibitory Concentration (MIC)
Mycobacterium fortuitum = test: as above; details: Mycolicibacterium fortuitum, MH Culture Medium, read-out: Minimum Inhibitory Concentration (MIC)
Mycodacterium chelonei = test: as above; details: MH Culture Medium; Chelonei (standard strain); read-out: Minimum Inhibitory Concentration (MIC)
[9] = 7H9 Broth, Mycobacterium avium Rough
[10] = 7H9 Broth, Mycobacterium avium Smooth
[11] = MH Broth, Mycobacterium avium Rough
[12] = MH Broth, Mycobacterium avium Smooth
[13] = MH Culture Medium, Avium (standard strain)
[14] = MH Culture Medium, clinically isolated strain Avium (S31)
[15] = MH Culture Medium, clinically isolated strain Avium (S123)
[16] = MH Culture Medium, clinically isolated strain Avium (S559)
[17] = MH Culture Medium, clinically isolated strain Avium (S568)
[18] = MH Culture Medium, clinically isolated strain Avium (S577)
[19] = MH Culture Medium, clinically isolated strain Avium (S597)
[20] = MH Culture Medium, clinically isolated strain Avium (S602)
[21] = MH Culture Medium, Kansasii (standard strain)
[22] = MH Culture Medium, clinically isolated strain Kansasii (S9)
[23] = MH Culture Medium, clinically isolated strain Kansasii (S199)
[24] = MH Culture Medium, clinically isolated strain Kansasii (S520)
[25] = MH Culture Medium, clinically isolated strain Kansasii (S609)
[26] = 7H9 Culture Medium, Mycobacterium avium Rough
[27] = 7H9 Culture Medium, Mycobacterium avium Smooth
[28] = MH Culture Medium, Mycobacterium avium Rough
[29] = MH Culture Medium, Mycobacterium avium Smooth
[30] = Intracellulare (standard strain)
[31] = clinically isolated strain Intracellulare (S90)
[32] = clinically isolated strain Intracellulare (S261)
[33] = clinically isolated strain Intracellulare (S269)
[34] = clinically isolated strain Intracellulare (S290)
[35] = clinically isolated strain Intracellulare (S291)
[36] = clinically isolated strain Intracellulare (S298)
[37] = clinically isolated strain Intracellulare (S541)
[38] = clinically isolated strain Intracellulare (S623)
[39] = clinically isolated strain Intracellulare (ZPS)
[40] = clinically isolated strain intracellulare (S442)
[41] = MH Culture Medium, clinically isolated strain Massiliense (D10)
[42] = MH Culture Medium, clinically isolated strain Massiliense (D18)
[43] = clinically isolated strain Fortuitum (S103)
[44] = clinically isolated strain Fortuitum (S111)

## CO[C@H]1/C=C/O[C@@]2(C)Oc3c(C)c(O)c4c(O)c(c(/C=N/N5CCC(N(C)C6([C@@H]7CCN(c8c(F)cn9c(=O)c(C(=O)O)cc(C%10CC%10)c9c8C)C7)CC6)CC5)c(O)c4c3C2=O)NC(=O)/C(C)=C\C=C\[C@H](C)[C@H](O)[C@@H](C)[C@@H](O)[C@@H](C)[C@H](CC(C)=O)[C@@H]1C [Compound I]
Mycobacterium avium [1]; [9]
  MIC: > 64 µg/mL
Mycobacterium avium [1]; [10]
  MIC: 4 µg/mL (≈ 3.32 µM)
Mycobacterium avium [1]; [11]
  MIC: > 64 µg/mL
Mycobacterium avium [1]; [12]
  MIC: 4 µg/mL (≈ 3.32 µM)
Mycobacterium avium [1]; [13]
  MIC: 1 µg/mL (≈ 0.831 µM)
Mycobacterium avium [1]; [14]
  MIC: 0.25 µg/mL (≈ 0.208 µM)
Mycobacterium avium [1]; [15]
  MIC: 8 µg/mL (≈ 6.65 µM)
Mycobacterium avium [1]; [16]
  MIC: 0.25 µg/mL (≈ 0.208 µM)
Mycobacterium avium [1]; [17]
  MIC: 32 µg/mL (≈ 26.6 µM)
Mycobacterium avium [1]; [18]
  MIC: 0.125 µg/mL (≈ 0.104 µM)
Mycobacterium avium [1]; [19]
  MIC: > 64 µg/mL
Mycobacterium avium [1]; [20]
  MIC: 8 µg/mL (≈ 6.65 µM)
Mycobacterium abscessus [2]; 7H9 Broth
  MIC: 1 µg/mL (≈ 0.831 µM)
Mycobacterium abscessus [2]; MH Broth
  MIC: 1 µg/mL (≈ 0.831 µM)
Mycobacterium kansasii [3]; 7H9 Broth
  MIC: 2 µg/mL (≈ 1.66 µM)
Mycobacterium kansasii [3]; MH Broth
  MIC: 2 µg/mL (≈ 1.66 µM)
Mycobacterium kansasii [3]; [21]
  MIC: 0.0625 µg/mL (≈ 0.0519 µM)
Mycobacterium kansasii [3]; [22]
  MIC: 0.25 µg/mL (≈ 0.208 µM)
Mycobacterium kansasii [3]; [23]
  MIC: 0.0625 µg/mL (≈ 0.0519 µM)
Mycobacterium kansasii [3]; [24]
  MIC: 0.0625 µg/mL (≈ 0.0519 µM)
Mycobacterium kansasii [3]; [25]
  MIC: 0.0625 µg/mL (≈ 0.0519 µM)
Mycobacterium kansasii [3]; against mycobacterium kansasii
  activity compared with controls, in words: much higher than that of rifampicin, ciprofloxacin and metronidazole
Mycobacterium avium [4]; [26]
  MBC: > 64 µg/mL
Mycobacterium avium [4]; [27]
  MBC: 16 µg/mL (≈ 13.3 µM)
Mycobacterium avium [4]; [28]
  MBC: > 64 µg/mL
Mycobacterium avium [4]; [29]
  MBC: 16 µg/mL (≈ 13.3 µM)
Mycobacterium avium [4]; against smooth type strain of Mycobacterium avium
  bactericidal activity (MBC), in words: had an activity
Mycobacterium abscessus [5]
  Minimum Bactericidal Concentration (MBC): 1 µg/mL
  MBC: 1 µg/mL (≈ 0.831 µM)
Mycobacterium kansasii [6]; 7H9 Culture Medium
  MBC: 2 µg/mL (≈ 1.66 µM)
Mycobacterium kansasii [6]; MH Culture Medium
  MBC: 2 µg/mL (≈ 1.66 µM)
Mycobacterium kansasii [6]; against mycobacterium kansasii
  bactericidal activity (MBC) compared with controls, in words: higher than or much higher than that of all other tested antibiotic drugs
[7]; [30]
  MIC: 0.5 µg/mL (≈ 0.415 µM)
[7]; [31]
  MIC: 64 µg/mL (≈ 53.2 µM)
[7]; [32]
  MIC: 64 µg/mL (≈ 53.2 µM)
[7]; [33]
  MIC: > 64 µg/mL
[7]; [34]
  MIC: 64 µg/mL (≈ 53.2 µM)
[7]; [35]
  MIC: 64 µg/mL (≈ 53.2 µM)
[7]; [36]
  MIC: 64 µg/mL (≈ 53.2 µM)
[7]; [37]
  MIC: 32 µg/mL (≈ 26.6 µM)
[7]; [38]
  MIC: 64 µg/mL (≈ 53.2 µM)
[7]; [39]
  MIC: 32 µg/mL (≈ 26.6 µM)
[7]; [40]
  MIC: 32 µg/mL (≈ 26.6 µM)
[7]; against Mycobacterium intracellulare
  activity, in words: weak
[8]; [41]
  MIC: > 64 µg/mL
[8]; MH Culture Medium, clinically isolated strain Massiliense (D14)
  MIC: > 64 µg/mL
[8]; [42]
  MIC: > 64 µg/mL
Mycobacterium fortuitum; Fortuitum (standard strain)
  MIC: 64 µg/mL (≈ 53.2 µM)
Mycobacterium fortuitum; [43]
  MIC: > 64 µg/mL
Mycobacterium fortuitum; [44]
  MIC: > 64 µg/mL
Mycodacterium chelonei
  MIC: 64 µg/mL (≈ 53.2 µM)

## CC[C@H]1OC(=O)[C@H](C)[C@@H](O[C@H]2C[C@@](C)(OC)[C@@H](O)[C@H](C)O2)[C@H](C)[C@@H](O[C@@H]2O[C@H](C)C[C@H](N(C)C)[C@H]2O)[C@](C)(OC)C[C@@H](C)C(=O)[C@H](C)[C@@H](O)[C@]1(C)O [Clarithromycin]
Mycobacterium avium [1]; [9]
  MIC: > 64 µg/mL
Mycobacterium avium [1]; [10]
  MIC: 32 µg/mL (≈ 42.8 µM)
Mycobacterium avium [1]; [11]
  MIC: > 64 µg/mL
Mycobacterium avium [1]; [12]
  MIC: > 64 µg/mL
Mycobacterium avium [1]; [13]
  MIC: 0.0625 µg/mL (≈ 0.0836 µM)
Mycobacterium avium [1]; [14]
  MIC: 0.125 µg/mL (≈ 0.167 µM)
Mycobacterium avium [1]; [15]
  MIC: 0.5 µg/mL (≈ 0.668 µM)
Mycobacterium avium [1]; [16]
  MIC: 0.25 µg/mL (≈ 0.334 µM)
Mycobacterium avium [1]; [17]
  MIC: 4 µg/mL (≈ 5.35 µM)
Mycobacterium avium [1]; [18]
  MIC: 0.25 µg/mL (≈ 0.334 µM)
Mycobacterium avium [1]; [19]
  MIC: 1 µg/mL (≈ 1.34 µM)
Mycobacterium avium [1]; [20]
  MIC: 1 µg/mL (≈ 1.34 µM)
Mycobacterium abscessus [2]; 7H9 Broth
  MIC: 16 µg/mL (≈ 21.4 µM)
Mycobacterium abscessus [2]; MH Broth
  MIC: 64 µg/mL (≈ 85.6 µM)
Mycobacterium kansasii [3]; 7H9 Broth
  MIC: 2 µg/mL (≈ 2.67 µM)
Mycobacterium kansasii [3]; MH Broth
  MIC: 2 µg/mL (≈ 2.67 µM)
Mycobacterium kansasii [3]; [21]
  MIC: 0.0625 µg/mL (≈ 0.0836 µM)
Mycobacterium kansasii [3]; [22]
  MIC: 0.125 µg/mL (≈ 0.167 µM)
Mycobacterium kansasii [3]; [23]
  MIC: 0.0625 µg/mL (≈ 0.0836 µM)
Mycobacterium kansasii [3]; [24]
  MIC: 0.0625 µg/mL (≈ 0.0836 µM)
Mycobacterium kansasii [3]; [25]
  MIC: 0.125 µg/mL (≈ 0.167 µM)
Mycobacterium avium [4]; [26]
  MBC: > 64 µg/mL
Mycobacterium avium [4]; [27]
  MBC: > 64 µg/mL
Mycobacterium avium [4]; [28]
  MBC: > 64 µg/mL
Mycobacterium avium [4]; [29]
  MBC: > 64 µg/mL
Mycobacterium abscessus [5]
  Minimum Bactericidal Concentration (MBC): >64 µg/mL
  MBC: > 64 µg/mL
Mycobacterium kansasii [6]; 7H9 Culture Medium
  MBC: 64 µg/mL (≈ 85.6 µM)
Mycobacterium kansasii [6]; MH Culture Medium
  MBC: > 64 µg/mL
[7]; [30]
  MIC: 0.0625 µg/mL (≈ 0.0836 µM)
[7]; [31]
  MIC: 1 µg/mL (≈ 1.34 µM)
[7]; [32]
  MIC: 1 µg/mL (≈ 1.34 µM)
[7]; [33]
  MIC: 1 µg/mL (≈ 1.34 µM)
[7]; [34]
  MIC: 1 µg/mL (≈ 1.34 µM)
[7]; [35]
  MIC: 1 µg/mL (≈ 1.34 µM)
[7]; [36]
  MIC: 2 µg/mL (≈ 2.67 µM)
[7]; [37]
  MIC: 64 µg/mL (≈ 85.6 µM)
[7]; [38]
  MIC: 4 µg/mL (≈ 5.35 µM)
[7]; [39]
  MIC: 1 µg/mL (≈ 1.34 µM)
[7]; [40]
  MIC: 2 µg/mL (≈ 2.67 µM)
[8]; [42]
  Minimum Inhibitory Concentration (MIC): 0.0625 µg/mL
[8]; [41]
  MIC: 0.25 µg/mL (≈ 0.334 µM)
[8]
  MIC: 0.0625 µg/mL (≈ 0.0836 µM)
Mycobacterium fortuitum; Fortuitum (standard strain)
  MIC: 32 µg/mL (≈ 42.8 µM)
Mycobacterium fortuitum; [43]
  MIC: > 64 µg/mL
Mycobacterium fortuitum; [44]
  MIC: 2 µg/mL (≈ 2.67 µM)
Mycodacterium chelonei
  MIC: 0.5 µg/mL (≈ 0.668 µM)
